Measured values reported in patent US20080009025A1, “PROTEIN KINASE REGULATION” (priority 1999, published 2008).
Where a SMILES comes first, the peptide text is derived from it.

Target: T1, PDK1 (Homo sapiens, UniProt O15530)
T1 sequence (O15530 1-556): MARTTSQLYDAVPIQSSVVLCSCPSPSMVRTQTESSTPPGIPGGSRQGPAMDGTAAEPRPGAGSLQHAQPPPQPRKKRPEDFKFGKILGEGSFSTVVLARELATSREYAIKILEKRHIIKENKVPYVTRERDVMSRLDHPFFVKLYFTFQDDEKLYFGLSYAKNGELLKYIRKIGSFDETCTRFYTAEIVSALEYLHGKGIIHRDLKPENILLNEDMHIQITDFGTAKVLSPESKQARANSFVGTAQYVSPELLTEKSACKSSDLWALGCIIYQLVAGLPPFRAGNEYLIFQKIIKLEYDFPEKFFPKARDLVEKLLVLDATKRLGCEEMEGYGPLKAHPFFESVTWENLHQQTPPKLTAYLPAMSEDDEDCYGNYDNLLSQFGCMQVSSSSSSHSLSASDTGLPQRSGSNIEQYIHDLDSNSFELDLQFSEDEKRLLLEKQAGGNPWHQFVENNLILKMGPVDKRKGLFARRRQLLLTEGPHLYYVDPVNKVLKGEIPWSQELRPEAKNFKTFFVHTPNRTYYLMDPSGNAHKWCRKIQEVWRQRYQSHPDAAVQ
Test: PDK1 activity towards synthetic peptide substrates T308tide or PDKtide
Assay type: biochemical
Set-up: Full length PDK1 (residues 1-556); made in house; host or cells: 293 cells
Conditions: substrate T308tide
Experimental: FIG. 12. PDK1 is activated and stabilised through its interaction with PIFtide. (A) GST-PDK1 activity was measured in the presence of increasing concentrations of wild type (wt) PIFtide (closed circles) or a mutant D978A PIFtide (open circles) using the synthetic peptide substrate termed T308tide, as described in Material and Methods. The data was fitted to a hyperbola using the Kaleidagraph™ software. The connection needed to obtain 50% activation of PDK1 was […] for wt-PIFtide and 1.1 μM for D978A-PIFtide. The assay shown was performed in triplicate and there was less than 5% difference between each assay. Similar results were obtained in 2 further experiments (B)—The wild type GST-PDK1 (circles) or the L155D mutant of GST-PDK1 (squares) was incubated in the presence (closed symbols) or absence (open symbols) of […] PIFtife and then for 2 min at the indicated temperatures, rapidly brought to 0° C. (see Materials and Methods), and 2 min later assayed at 30° C. for 10 min using T308tide as substrate. The activity of PDK1 obtained by incubation at 30° C. was taken as 100%. The assay shown was performed in duplicate with similar results obtained in two separate experiments.
FIG. 14. […] (A) His-PDK1 was assayed for activity using as substrate the indicated concentration of either PDKtide (open triangles) or T308tide (open circles). […]
PDK1's ability to phosphorylate Thr308 of PKBα was measured using a mutant of GST-PKBα in which Ser473 was mutated to Asp (GST-473D PKBα) in the presence of phospholipid vesicles containing sn-1-stearoyl-2-arachidonoyl-D-PtdIns (3, 4, 5)P3 [13]. […] 35 μl of the resultant mixture was spotted into P81 phosphocellulose paper (2×2 cm) and the papers washed and analysed as described previously for assays of MAP kinase. […] Control assays were carried out in parallel in which either PDK1, or peptide substrate were omitted; these values were always less than 5% of the activity measured in the presence of these reagents. […]

SMILES | less effective at inducing PDK1 activation than wild type PIFtide [fold] | EC50 (GST-PDK1, read-out: concentration required for half-maximal (50%) activation of PDK1) [nM] | increase in PDK1 activity towards T308tide
CC[C@H](C)[C@H](NC(=O)[C@H](CCCNC(=N)N)NC(=O)[C@@H]1CCCN1C(=O)[C@H](CCC(=O)O)NC(=O)[C@@H](N)CCCNC(=N)N)C(=O)N[C@@H](CC(C)C)C(=O)N[C@@H](CO)C(=O)N[C@@H](CCC(=O)O)C(=O)N[C@@H](CCC(=O)O)C(=O)N[C@@H](CCC(=O)O)C(=O)N[C@@H](CCC(N)=O)C(=O)N[C@@H](CCC(=O)O)C(=O)N[C@@H](CCSC)C(=O)N[C@@H](Cc1ccccc1)C(=O)N[C@@H](CCCNC(=N)N)C(=O)N[C@@H](CC(=O)O)C(=O)N[C@@H](Cc1ccccc1)C(=O)N[C@@H](C)C(=O)N[C@@H](Cc1ccc(O)cc1)C(=O)N[C@@H](CC(C)C)C(=O)N[C@@H](C)C(=O)N[C@@H](CC(=O)O)C(=O)N[C@@H](Cc1c[nH]c2ccccc12)C(=O)N[C@@H](CS)C(=O)O [D978A-PIFtide] (H-REPRILSEEEQEMFRDFAYLADWC-OH; N-terminus and C-terminus assumed) | 8 | – | –
CC[C@H](C)[C@H](NC(=O)[C@H](Cc1ccc(O)cc1)NC(=O)[C@H](CC(=O)O)NC(=O)[C@H](Cc1ccccc1)NC(=O)[C@H](CC(=O)O)NC(=O)[C@H](CCCNC(=N)N)NC(=O)[C@H](Cc1ccccc1)NC(=O)[C@H](CCSC)NC(=O)[C@H](CCC(=O)O)NC(=O)[C@H](CCC(N)=O)NC(=O)[C@H](CCC(=O)O)NC(=O)[C@H](CCC(=O)O)NC(=O)[C@H](CCC(=O)O)NC(=O)[C@H](CO)NC(=O)[C@H](CC(C)C)NC(=O)[C@@H](NC(=O)[C@H](CCCNC(=N)N)NC(=O)[C@@H]1CCCN1C(=O)[C@H](CCC(=O)O)NC(=O)[C@@H](N)CCCNC(=N)N)[C@@H](C)CC)C(=O)N[C@@H](C)C(=O)N[C@@H](CC(=O)O)C(=O)N[C@@H](Cc1c[nH]c2ccccc12)C(=O)N[C@@H](CS)C(=O)O [PIFtide] (H-REPRILSEEEQEMFRDFDYIADWC-OH; N-terminus and C-terminus assumed) | – | 140 | up to 4 fold
